Tests used:
[1] = biological target: T1, recombinant human FLAP protein (Homo sapiens, UniProt P20292); assay: FLAP binding assay (SPA, displacement of [125I]L-691,831); conditions: membranes of sf9 cells expressing recombinant human FLAP; [125I]L-691,831 probe; read-out: FLAP binding IC50
T1 construct: made in house; host or cells: Sf9 insect cells (100,000×g membrane pellet used)
T1 sequence (P20292 1-161): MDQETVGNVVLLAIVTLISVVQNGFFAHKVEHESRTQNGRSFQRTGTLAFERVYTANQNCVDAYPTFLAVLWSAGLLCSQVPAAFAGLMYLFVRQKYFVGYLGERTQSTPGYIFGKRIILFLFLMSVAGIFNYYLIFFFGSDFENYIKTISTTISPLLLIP
How it was run: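 Membranes from sf9 cells expressing human FLAP in pH 7.5 Tris buffer (MgCl2, EDTA, PMSF). Non-specific binding defined with 10 μM cold L-691,831.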

[2] = system: synthesis of LTB4 in human whole blood; assay: Human whole blood assay (inhibition of LTB4 synthesis, calcimycin stimulated); type: cell-based; conditions: heparinized human whole blood, calcimycin 20 μM, plasma LTB4
How it was run: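 LTB4 levels in plasma were measured by antibody-based HTRF after heparinized human whole blood, pretreated with compound (15 min, 37° C), was challenged with 20 μM calcimycin for 30 min at 37° C.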

| IC50 [1] [µM] | IC50 [2] [µM] | Compound |
| --- | --- | --- |
| 0.22 | 1.9 | CC(C)C(C)(c1ccc(-c2cnc(N)nc2)cc1)c1noc(NCCN(C)C)n1 (stereo not shown) [Example 171, N-(3-{1-[4-(2-Amino-pyrimidin-5-yl)-phenyl]-1,2-dimethyl-propyl}-[1,2,4]oxadiazol-5-yl)-N′,N′-dimethyl-ethane-1,2-diamine] |
| 0.0011 | 0.066 | CN(C)C(=O)Cn1cc(-c2nc([C@@](C)(c3ccc(-c4ccc(N)nc4)cc3)C3CC3)no2)cn1 [Example 172, 2-[4-(3-{(R)-1-[4-(6-Amino-pyridin-3-yl)-phenyl]-1-cyclopropyl-ethyl}-[1,2,4]oxadiazol-5-yl)-pyrazol-1-yl]-N,N-dimethyl-acetamide] |
| 0.0024 | 0.031 | CC(C)(O)Cn1cc(-c2nc([C@@](C)(c3ccc(-c4ccc(N)nc4)cc3)C3CC3)no2)cn1 [Example 173, 1-[4-(3-{(R)-1-[4-(6-Amino-pyridin-3-yl)-phenyl]-1-cyclopropyl-ethyl}-[1,2,4]oxadiazol-5-yl)-pyrazol-1-yl]-2-methyl-propan-2-ol] |
| 0.0022 | 0.039 | CC(C)(O)Cn1cc(-c2nc([C@@](C)(c3ccc(-c4cnc(N)cn4)cc3)C3CC3)no2)cn1 [Example 175, 1-[4-(3-{(R)-1-[4-(5-Amino-pyrazin-2-yl)-phenyl]-1-cyclopropyl-ethyl}-[1,2,4]oxadiazol-5-yl)-pyrazol-1-yl]-2-methyl-propan-2-ol] |
| 0.0089 | 0.066 | Cc1nc(-c2ccc([C@](C)(c3noc(-c4cnn(CC(=O)N(C)C)c4)n3)C3CC3)cc2)cnc1N [Example 177, 2-[4-(3-{(R)-1-[4-(5-Amino-6-methyl-pyrazin-2-yl)-phenyl]-1-cyclopropyl-ethyl}-[1,2,4]oxadiazol-5-yl)-pyrazol-1-yl]-N,N-dimethyl-acetamide] |
| 0.0022 | 0.18 | Cc1cc(-c2ccc([C@](C)(c3noc(-c4cnn(CC(=O)N(C)C)c4)n3)C3CC3)cc2)cnc1N [Example 178, 2-[4-(3-{(R)-1-[4-(6-Amino-5-methyl-pyridin-3-yl)-phenyl]-1-cyclopropyl-ethyl}-[1,2,4]oxadiazol-5-yl)-pyrazol-1-yl]-N,N-dimethyl-acetamide] |
| 0.0046 | 0.049 | Cc1cc(-c2ccc([C@](C)(c3noc(-c4cnn(CC(C)(C)O)c4)n3)C3CC3)cc2)cnc1N [Example 179, 1-[4-(3-{(R)-1-[4-(6-Amino-5-methyl-pyridin-3-yl)-phenyl]-1-cyclopropyl-ethyl}-[1,2,4]oxadiazol-5-yl)-pyrazol-1-yl]-2-methyl-propan-2-ol] |
| 0.0029 | 0.029 | Cc1nc(-c2ccc([C@](C)(c3noc(-c4cnn(CC(C)(C)O)c4)n3)C3CC3)cc2)cnc1N [Example 180, 1-[4-(3-{(R)-1-[4-(5-Amino-6-methyl-pyrazin-2-yl)-phenyl]-1-cyclopropyl-ethyl}-[1,2,4]oxadiazol-5-yl)-pyrazol-1-yl]-2-methyl-propan-2-ol] |
| 0.0033 | 0.051 | Cn1cc(-c2nc([C@@](C)(c3ccc(-c4ccc(N)nc4)cc3)C3CC3)no2)cn1 [Example 181, 5-(4-{(R)-1-Cyclopropyl-1-[5-(1-methyl-1H-pyrazol-4-yl)-[1,2,4]oxadiazol-3-yl]-ethyl}-phenyl)-pyridin-2-ylamine] |
| 0.0031 | 0.014 | CN(C)CCn1cc(-c2nc([C@@](C)(c3ccc(-c4cnc(N)nc4)cc3)C3CC3)no2)cn1 [Example 182, 5-[4-((R)-1-Cyclopropyl-1-{5-[1-(2-dimethylamino-ethyl)-1H-pyrazol-4-yl]-[1,2,4]oxadiazol-yl}-ethyl)-phenyl]-pyrimidin-2-ylamine] |
| 0.0055 | 0.039 | COCCn1cc(-c2nc([C@@](C)(c3ccc(-c4ccc(N)nc4)cc3)C3CC3)no2)cn1 [Example 183, 5-[4-((R)-1-Cyclopropyl-1-{5-[1-(2-methoxy-ethyl)-1H-pyrazol-4-yl]-[1,2,4]oxadiazol-3-yl}-ethyl)-phenyl]-pyridin-2-ylamine] |
| 0.002 | 0.023 | Cn1cc(-c2nc([C@@](C)(c3ccc(-c4cnc(N)cn4)cc3)C3CC3)no2)cn1 [Example 184, 5-(4-{(R)-1-Cyclopropyl-1-[5-(1-methyl-1H-pyrazol-4-yl)-[1,2,4]oxadiazol-3-yl]-ethyl}-phenyl)-pyrazin-2-ylamine] |
| 0.0019 | 0.028 | Cc1cc(-c2ccc([C@](C)(c3noc(-c4cnn(C)c4)n3)C3CC3)cc2)cnc1N [Example 185, 5-(4-{(R)-1-Cyclopropyl-1-[5-(1-methyl-1H-pyrazol-4-yl)-[1,2,4]oxadiazol-3-yl]-ethyl}-phenyl)-3-methyl-pyridin-2-ylamine] |
| 0.02 | 0.15 | CC(C)C(C)(c1ccc(-c2cnc(N)nc2)cc1)c1noc(N2CCN(CCO)CC2)n1 (stereo not shown) [Example 186, 2-[4-(3-{1-[4-(2-Amino-pyrimidin-5-yl)-phenyl]-1,2-dimethyl-propyl}-[1,2,4]oxadiazol-5-yl)-piperazin-1-yl]-ethanol] |
| 0.017 | 0.023 | Cc1nc(-c2ccc([C@](C)(c3noc(-c4cnn(C)c4)n3)C3CC3)cc2)cnc1N [Example 187, 5-(4-{(R)-1-Cyclopropyl-1-[5-(1-methyl-1H-pyrazol-4-yl)-[1,2,4]oxadiazol-3-yl]-ethyl}-phenyl)-3-methyl-pyrazin-2-ylamine] |
| 0.048 | 0.051 | COCCn1cc(-c2nc([C@@](C)(c3ccc(-c4cnc(N)c(C)c4)cc3)C3CC3)no2)cn1 [Example 188, 5-[4-((R)-1-Cyclopropyl-1-{5-[1-(2-methoxy-ethyl)-1H-pyrazol-4-yl]-[1,2,4]oxadiazol-3-yl}-ethyl)-phenyl]-3-methyl-pyridin-2-ylamine] |
| 0.013 | 0.049 | COCCn1cc(-c2nc([C@@](C)(c3ccc(-c4cnc(N)c(C)n4)cc3)C3CC3)no2)cn1 [Example 189, 5-[4-((R)-1-Cyclopropyl-1-{5-[1-(2-methoxy-ethyl)-1H-pyrazol-4-yl]-[1,2,4]oxadiazol-3-yl}-ethyl)-phenyl]-3-methyl-pyrazin-2-ylamine] |
| 0.0059 | 0.23 | C[C@@](c1ccc(-c2cnc(N)nc2)cc1)(c1noc(-c2cnn(CCN)c2)n1)C1CC1 [Example 190, 5-[4-((R)-1-{5-[1-(2-Amino-ethyl)-1H-pyrazol-4-yl]-[1,2,4]oxadiazol-3-yl}-1-cyclopropyl-ethyl)-phenyl]-pyrimidin-2-ylamine] |
| 0.0059 | 0.017 | COCCn1cc(-c2nc([C@@](C)(c3ccc(-c4cnc(N)cn4)cc3)C3CC3)no2)cn1 [Example 191, 5-[4-((R)-1-Cyclopropyl-1-{5-[1-(2-methoxy-ethyl)-1H-pyrazol-4-yl]-[1,2,4]oxadiazol-3-yl}-ethyl)-phenyl]-pyrazin-2-ylamine] |
| 0.023 | 0.74 | CC(C)C(C)(c1ccc(-c2cnc(N)nc2)cc1)c1noc(N2CCN(C(N)=O)CC2)n1 (stereo not shown) [Example 192, 4-(3-{1-[4-(2-Amino-pyrimidin-5-yl)-phenyl]-1,2-dimethyl-propyl} [1,2,4]oxadiazol-5-yl)-piperazine-1-carboxylic acid amide] |
| 0.018 | 0.23 | CC(C)C(C)(c1ccc(-c2cnc(N)nc2)cc1)c1noc(N2CCN(CC(=O)N(C)C)CC2)n1 (stereo not shown) [Example 193, 2-[4-(3-{1-[4-(2-Amino-pyrimidin-5-yl)-phenyl]-1,2-dimethyl-propyl}-[1,2,4]oxadiazol-5-yl)-piperazin-1-yl]-N,N-dimethyl-acetamide] |
| 0.006 | 0.096 | COCCN(C)C(=O)Cn1cc(-c2nc([C@@](C)(c3ccc(-c4cnc(N)nc4)cc3)C3CC3)no2)cn1 [Example 194, 2-[4-(3-{(R)-1-[4-(2-Amino-pyrimidin-5-yl)-phenyl]-1-cyclopropyl-ethyl}-[1,2,4]oxadiazol-5-yl)-pyrazol-1-yl]-N-(2-methoxy-ethyl)-N-methyl-acetamide] |
| 0.0046 | 0.28 | C[C@@](c1ccc(-c2cnc(N)cn2)cc1)(c1noc(-c2cnc(N3CCNCC3)cn2)n1)C1CC1 [Example 195, 5-(4-{(R)-1-Cyclopropyl-1-[5-(3,4,5,6-tetrahydro-2H-[1,2′]bipyrazinyl-5′-yl)-[1,2,4]oxadiazol-3-yl]-ethyl}-phenyl)-pyrazin-2-ylamine] |
| 0.0022 | 0.18 | C[C@@](c1ccc(-c2cnc(N)nc2)cc1)(c1noc(-c2cnc(N3CCNCC3)cn2)n1)C1CC1 [Example 196, 5-(4-{(R)-1-Cyclopropyl-1-[5-(3,4,5,6-tetrahydro-2H-[1,2′]bipyrazinyl-5′-yl)-[1,2,4]oxadiazol-3-yl]-ethyl}-phenyl)-pyrimidin-2-ylamine] |

| Compound | IC50 [1] [µM] | IC50 [2] [µM] |
| --- | --- | --- |
| CC(C)(O)Cn1cc(-c2nc([C@@](C)(c3ccc(-c4cnc(N)nc4)cc3)C3CC3)no2)cn1 [Example 174, 1-[4-(3-{(R)-1-[4-(2-Amino-pyrimidin-5-yl)-phenyl]-1-cyclopropyl-ethyl}-[1,2,4]oxadiazol-5-yl)-pyrazol-1-yl]-2-methyl-propan-2-ol] | 0.0012 | 0.019 |
| CN(C)C(=O)Cn1cc(-c2nc([C@@](C)(c3ccc(-c4cnc(N)cn4)cc3)C3CC3)no2)cn1 [Example 176, 2-[4-(3-{(R)-1-[4-(5-Amino-pyrazin-2-yl)-phenyl]-1-cyclopropyl-ethyl}-[1,2,4]oxadiazol-5-yl)pyrazol-1-yl]-N,N-dimethyl-acetamide] | 0.0012 | 0.073 |

From patent publication US8658661B2, “Oxadiazole inhibitors of leukotriene production” (Boehringer Ingelheim International GmbH, priority 2010, dated 2014)
